Assays:
[1] = test system: B cell malignancies; details: human, in vivo; cited from earlier work
[2] = test system: follicular lymphoma; assay: Blinatumomab treatment of patient 109-036 (follicular lymphoma): CT tumor response; type: in vivo, human; details: Blinatumomab 5 μg/m^2/24 h for 1 week, then 60 μg/m^2/24 h, with PPS
Method: (§1) Patient was then treated for 7 weeks at 60 μg/m^2/24 h of Blinatumomab.
(§2) 6× CHOP 12/02-04/03 • 2. Induction according to Dexa-BEAM Protocol 05/03 • 3. Autologous SCT 08/03 • Date of last prior treatment: 08/03 • Treatment start: 10.5.2010 • Major Involvement: • 1. Supraclavicular • 2. Mediastinal • 3. Mesenterial (small intestinal involvement?) • 4W CT: PR -63% • 8W CT: CRu:-79% • EOS: 30.7.2010
(FL: follicular lymphoma, SCT: stem cell therapy, PR: partial remission, Cru: complete remission (unconfirmed), EOS: end of study).

[3] = test system: non-Hodgkin's lymphoma; details: cited from earlier work
[4] = test system: neurological adverse effects caused by a CD3 binding domain; assay: PPS co-treatment of patient 109-036 during Blinatumomab start and dose escalation: neurological adverse effects; type: in vivo, human
Method: as §1, §2

[5] = continuous administration, non-Hodgkin's lymphoma patients

Substance	Patients with an early neurological reaction [1]	4W CT: change ([2]; 4 weeks) [%]	8W CT: change ([2]; 8 weeks) [%]	8W CT: response category ([2]; 8 weeks)	Dose level at which partial and complete tumor regressions were first observed [3, 5] [milligrams/m^2/d]	Effect on tumor cells in bone marrow and liver [3, 5]	Patients who experienced a tumor regression ([3]; dose level of 0.06 milligrams/m^2/d)	Effect on lymphoma target cells in blood ([3]; doses as low as 0.005 milligrams per square meter per day, continuous, four weeks)	Neurological reactions in the clinical trial ([3]; human, in vivo)	Apraxia and aphasia ([4]; patient 109-036, low B:T cell ratio, PPS 100 mg i.v. bolus 3 h before treatment start and before dose increase (day 8), then 300 mg/24 h for 48 h, Blinatumomab 5 then 60 μg/m^2/24 h)	Tremor (remaining neurological adverse effect) ([4]; patient 109-036, PPS 100 mg i.v. bolus then 300 mg/24 h for 48 h, Blinatumomab escalation to 60 μg/m^2/24 h)
Blinatumomab	7 out of 22	-63	-79	CRu	0.015	clearance of tumor cells from bone marrow and liver	all seven	elimination of lymphoma target cells in blood	neurological reactions have been found	–	–
β-D-Xylan, (1-4), 2,3-bis(hydrogen sulphate) [PPS]	–	–	–	–	–	–	–	–	–	prevented	slight tremor

Reference: patent US9486475B2 (AMGEN RESEARCH (MUNICH) GMBH, priority 2013, dated 2016)
